Experimental findings from patent publication US20240344059A1, “Gene Editing of Regulatory Elements” (Vertex Pharmaceuticals Incorporated, priority 2021, published 2024) are described below.

For test [1], the system named is CUG foci in myonuclei of DM1 patient myotubes. Nature of the test: FISH staining of CUG RNA foci (SaCas9/SluCas9 sgRNA pairs). Format: cell-based, human. The following applies: DM1 patient myotubes, DNA-PKi group versus DMSO group. The method, then: Primary myotubes were fixed for 15 min with 4% paraformaldehyde (PFA) and washed five times with 1×PBS for 5 min each at room temperature. Before staining, cells were permeabilized with 0.5% triton X-100 in 1×PBS for 5 min at room temperature, and then washed with 30% formamide and 2× saline-sodium citrate (SSC) mixture for 10 min at room temperature. Cells were then stained with 1 ng/μL of Cy3-PNA(CAG)5 probe (PNA Bio, F5001) diluted in 30% formamide, 2×SSC, 2 μg/mL BSA, 66 μg/mL yeast tRNA, and 2 mM vanadyl complex for 15 min at 80° C. Following probe staining, cells were then washed in 30% formamide and 2×SSC mixture for 30 min at 60° C., then washed in 30% formamide and 2×SSC mixture for 30 min at 55° C., and then washed in 1×SSC solution for 10 min at room temperature, and finally washed in 1×PBS for 10 min at room temperature. For staining of myotube nuclei, cells were stained with anti-Myogenin antibody diluted in 1% bovine serum albumin (BSA) for overnight at 4° C. and washed twice with 1×PBS for 5 min each at room temperature. Cells were then incubated with the secondary antibody goat anti-rabbit Alexa 488 (Thermo Fisher, A32731) diluted in 1% BSA for 1 hr at room temperature and washed twice with 1×PBS for 5 min each at room temperature. Next, cells were stained with Hoechst solution (Thermo Fisher, H3569) at 0.1 mg/ml for 5 min and washed once with 1×PBS for 5 min. PBS was aspirated and fresh 100 μl of fresh PBS was added to each well. High-throughput acquisition of images was completed with the ImageXpress Micro Confocal High-Content Imaging System (Molecular Devices). RNA foci quantifications were accomplished with a customized analysis module of the MetaXpress program (Molecular Devices).
Each sgRNA pair consisting of one upstream sgRNA and one downstream sgRNA were assembled with recombinant SaCas9 or SluCas9 protein, respectively, into a ribonucleoprotein (RNP) complex and delivered into primary DM1 patient myoblasts with Amaxa 4D-Nucleofector. Post nucleofection, myoblasts were divided into 6 groups and were treated with DMSO (Groups 1-3) or 3 μM of DNA-dependent Protein Kinase Inhibitor (DNA-PKi) Compound 6 (Group 4-6) for 48 hrs. DNA-PKi was used to boost the excision efficiency and to better understand the contribution of E-boxes to DMPK transcription. 72 hrs post nucleofection, myoblasts from Groups 1 and 4 were collected for genomic DNA isolation, whereas the rest of the groups were subjected to myogenic differentiation to form myotubes. The myotubes were collected on Day 15 post nucleofection (Day 12 post differentiation) for mRNA isolation (Group 2 and 5) and RNA foci staining (Groups 3 and 6) (FIG. 9).

Test [2] relates to E-boxes within intron 1 of human DMPK gene. Nature of the test: PCR, TapeStation and ICE verification of E-box excision (SaCas9/SluCas9 RNP). Type of test: cell-based. The following applies: DM1 patient myoblasts, 3 μM DNA-PKi Compound 6 for 48 h, TapeStation and ICE analysis. An excerpt:
Primary healthy myoblasts (P01431-18F) and DM1 patient myoblasts (03001-32F) were obtained from Cook MyoSite. Myoblasts were maintained in myoblast growth medium consisted of Myotonic™ Basal Medium (Cook Myosite, MB-2222) and Myotonic™ Growth Supplement (Cook Myosite, MS-3333) and purified with EasySep Human CD56 Positive Selection Kit II (StemCell Tech, 17855) following the manufacturer's instruction. Purified myoblasts were then banked in liquid nitrogen tank until 3-4 days before nucleofection.
The RNPs were assembled with either recombinant SaCas9 protein (Aldevron) or SluCas9 (Aldevron) and chemically modified sgRNAs (Synthego) at a ratio of 1:3 (protein:sgRNA). Specifically, SaCas9 RNPs complexes were first assembled for individual sgRNAs with 20 pmol of SaCas9 protein and 60 pmol of sgRNAs in 5 μL of P5 Nucleofector Solution. SluCas9 RNPs complexes were first assembled for individual sgRNAs with 15 pmol of SluCas9 and 45 pmol of sgRNAs in 5 μL of P5 Nucleofector Solution. […]
Genomic DNA of DM1 myoblasts was isolated with the Kingfisher Flex purification system (Thermal Fisher) in 96-well format following the manufacturer's instruction. […] The PCR products were analyzed by gel electrophoresis. […]

Regarding `Cc1ccnc(N[C@H]2CC[C@@H](Oc3cc(N4CCOCC4)cc4nonc34)CC2)n1` [Compound 6], the “further average foci number reduction in myonuclei by DNA-PKi” value in test [1] is “no further average foci number reduction”. Further, in test [2], the “expected excision, DNA-PKi group compared to the vehicle group” value is listed as “more apparent expected excision”.
